# Data as given in patent EP4682144A1, “SOLID FORM OF PYRROLIDONE DERIVATIVE AS GLUCOKINASE ACTIVATOR” (Hua Medicine (Shanghai) Ltd., priority 2023, dated 2024).
# Where a name gives a salt, the structure may show the parent alone.
# Columns and labels:
# [1] = Simulated metabolic test in human intestine S9; assay type: in vitro ADME
# Procedure: Preparation of phosphate buffer (PB): 73.21 g of K2HPO4·3H2O (AR grade) and 10.78 g of KH2PO4 (AR grade) were dissolved in ultra-pure water to obtain a final volume of 4000 mL and a final concentration of 100 mM. The pH of the final test solution was adjusted to 7.40±0.10 with H3PO4/KOH.
# An Apricot automation workstation was used to add 50 µL/well of HIS9 solution to the corresponding wells of all reaction plates (blank, T0, T5, T15, T30, T45, T60).
# An Apricot automation workstation was used to add 48 µL/well of PB to the corresponding wells of every reaction plate (blank, T0, T5, T15, T30, T45, T60) to start the reaction.
# The reaction plates were incubated at 37 °C, and timer was started. An Apricot automation workstation was used to add 300 µL/well of stop solution (cold acetonitrile containing 200 ng/mL tolbutamide (internal standard)) to the corresponding wells of each reaction plate at the appropriate end time point to stop the reaction.
# Each plate was sealed and shaken for 10 minutes. Each plate was centrifuged at 4000 rpm and 4 °C for 20 minutes. After centrifugation, 100 µL of supernatant was transferred from each reaction plate to the corresponding analysis plate, and mixed well with 300 µL of ultra-pure water.
# [2] = Pharmacokinetic study in rats (IV and PO); assay type: in vivo, SD male rats
# Procedure: Each group was divided into 2 subgroups (intravenous bolus group (IV) and gavage group (PO)).
# Whole blood samples (about 0.2 mL per time point) were collected at pre-dose (0), 0.083, 0.25, 0.5, 1, 2, 4, 8, 12, and 24 hours post-dose by jugular vein puncture. All the blood samples were immediately transferred into labeled pre-chilled commercial microcentrifuge tubes containing 4 µL of 0.5M K2-EDTA and 10 µL of cocktail stabilizer. Samples were placed on wet ice until centrifugation (within 30 min). Plasma samples were then prepared by centrifuging the blood samples at approximately 4 °C, 3200xg for 10 minutes. Supernatant plasma was pipetted, then quickly frozen over dry ice, and then kept at -60 °C or lower temperature until LC-MS/MS analysis.
# The plasma concentrations were subjected to a non-compartmental pharmacokinetic analysis by using the WinNonlin™ software program (version 6.3).
# C57BL/6J mice [3] = experiment: Oral glucose tolerance test (OGTT), glucose-lowering effect; assay type: in vivo; settings: for blood glucose level at 0 min (pre-glucose): oral, 1 hour after administration, dose-response relationship; for blood glucose values after glucose administration: 60 min, and 120 min
# Procedure: (§1) There were 7 groups of mice, with 8 mice in each group. […] Oral glucose tolerance test (OGTT) was performed 1 hour after administration. The blood glucose level in mice was tested before administration (-60 min), before sugar administration (0 min), and at 15 min, 30 min, 60 min, and 120 min after sugar administration. In addition, 40 µl of blood was collected from the tail tip before sugar administration (0 min) and at 15 min after sugar administration to collect the plasma for an insulin level test.
# (§2) All data was transferred into an Excel document. The blood glucose results were expressed in mg/dL and expressed as MEAN ± SEM. Differences between multiple groups were analyzed using Dunnett's method in one-way analysis of variance (ANOVA) or two-way analysis of variance (ANOVA) with Graphpad Prism 8 software for comparison, and the differences were considered statistically significant when the P value was less than 0.05.
# C57BL/6J mice [4] = experiment: Plasma insulin level test during OGTT; assay type: in vivo
# Procedure: as §1, §2
# [5] = Preliminary solubility test in solvents at room temperature; assay type: physicochemical
# Procedure: Table 10 Solubility range of the starting material sample at room temperature
# The solubility range in the corresponding solvent was calculated based on the mass of the sample and the volume of the added solvent, as shown in Table 28. The data were used as a base to guide the selection of solvent in screening tests. Table 28 Preliminary solubility of crystal form A of the free state at room temperature
# The solubility range in the corresponding solvent was calculated based on the mass of the sample and the volume of the added solvent, as shown in Table 35. The data were used as a base to guide the selection of solvent in the screening tests.
# [6] = Caco-2 bi-directional permeability test; settings: human; for recovery at 2 h, 2 µM: Compound A concentration 2.00 µM; for recovery at 2 h, 10 µM: Compound A concentration 10.0 µM
# Procedure: (§3) Caco-2 cell culture: Caco-2 cells (purchased from American Type Culture Collection, ATCC) were inoculated on polyethylene film (PET) of a 96-well culture plate at a concentration of 1x10^5 cells/cm^2. The culture medium was replaced every 4 days until cell confluency to form cell monolayer on day 21 or 28.
# (§4) Transport test: Transport buffer used in the test was Hanks' Balanced Salt Solution (HBSS) containing 10 mM 2-[4-(2-hydroxyethyl)-1-piperazinyl] ethanesulfonic acid (HEPES) with a pH of 7.40 ± 0.05. In vitro permeability studies were performed with Nadolol, Metoprolol and Digoxin as model permeants. […] Digoxin was assessed bi-directionally with a test concentration of 10.0µM (n=2). Nadolol and Metoprolol were assessed unidirectionally both with a test concentration of 2.00 µM (n=2). The final concentration of DMSO in the incubation system was adjusted to <1%.
# Caco-2 cells = experiment: Caco-2 bi-directional permeability test; settings: Caco-2
# Procedure: as §3, §4
# [7] = Dynamic vapour sorption (DVS) test; assay type: physicochemical; settings: relative humidity of less than or equal to 90%; listed as crystal form B of the hydrochloride
# Procedure: A certain amount of powder was taken and put into a sample pan, and hygroscopicity of the sample was evaluated with DVS according to the following instrument method:
# [8] = High-temperature and high-humidity stability test of hydrochloride crystal form B; assay type: physicochemical
# [9] = C57BL/6J mice, versus vehicle control group
# [10] = acetone, 25 °C, organic solvent or mixture, thermodynamic from solid, room temperature
# [11] = chcl3, 25 °C, organic solvent or mixture, thermodynamic from solid, CHCl3, room temperature
# [12] = Caco-2, pH 7.4, Average recovery rate (%) A→B
# [13] = Caco-2, pH 7.4, Average recovery rate (%) B→A
structure (smiles),measurement,setting,value
"CC(C)C[C@@H](C(=O)Nc1ccn(C[C@@H](O)COC(=O)c2cccnc2)n1)N1CC(Oc2ccccc2Cl)=CC1=O [Compound A, (R)-3-(3-((S)-2-(4-(2-chlorophenoxy)-2-oxo-2,5-dihydro-1H-pyrrol-1-yl)-4-methylpentanamido)-1H-pyrazol-1-yl)-2-hydroxypropyl nicotinate]",time until completely metabolized and converted into the parent drug HMS5552,[1],≤ 5 min
same,metabolism in rats by intravenous injection,"[2]; rats, intravenous injection",metabolized very rapidly
same,glucose-lowering effect in mice,"C57BL/6J mice [3]; C57BL/6J mice, OGTT",good glucose-lowering effect
same,blood glucose level at 0 min (pre-glucose),C57BL/6J mice [3]; [9],generally lower than that of the vehicle control group
same,blood glucose values after glucose administration,"C57BL/6J mice [3]; compound A-49.1 mg/kg group, at 15 min, 30 min, versus vehicle control group",significantly lower than that of the vehicle control group
same,blood glucose values after glucose administration,"C57BL/6J mice [3]; compound A-49.1 mg/kg group, at 30 min, versus HMS5552-40mg/kg group",significantly lower than that of the HMS5552-40mg/kg group
same,AUC0-120min of OGTT blood glucose,C57BL/6J mice [3]; medium and high dose groups of compound A versus corresponding dose groups of HMS5552,significantly lower than those of the corresponding dose groups of HMS5552
same,insulin level at 0 min,C57BL/6J mice [4]; compound A high-dose group,significantly higher than that of the vehicle control group and the HMS5552 high-dose group
same,insulin level at 15 min,C57BL/6J mice [4]; compound A-18.4mg/kg group versus corresponding dose group of HMS5552,significantly higher than that of the corresponding dose group of HMS5552
same,insulin level at 15 min,C57BL/6J mice [4]; compound A-18.4mg/kg group versus vehicle control group,significantly higher than that of the vehicle control group
same,insulin level at 15 min,C57BL/6J mice [4]; compound A-49.1mg/kg group versus vehicle control group,significantly higher than that of the vehicle control group
same,Solubility (mg/mL),"[5]; 1,4-Dioxane, room temperature",S>42.0 mg/mL
same,Solubility (mg/mL),"[5]; 2-MeTHF, room temperature",S>42.0 mg/mL
same,solubility,"[5]; 2-MeTHF/n-Heptane (1:4) v/v, 25 °C, organic solvent or mixture, thermodynamic from solid, 2-MeTHF/n-Heptane (1:4) v/v, room temperature",< 1000 µg/mL
same,Solubility (mg/mL),"[5]; ACN, room temperature",S>50.0 mg/mL
same,solubility,"[5]; Cyclohexane, 25 °C, organic solvent or mixture, thermodynamic from solid, room temperature",< 1100 µg/mL
same,solubility,"[5]; DCM, 25 °C, organic solvent or mixture, thermodynamic from solid, room temperature",> 44000 µg/mL
same,solubility,"[5]; DMAc, 25 °C, organic solvent or mixture, thermodynamic from solid, room temperature",> 42000 µg/mL
same,solubility,"[5]; DMSO, 25 °C, organic solvent or mixture, thermodynamic from solid, room temperature",> 44000 µg/mL
same,Solubility (mg/mL),"[5]; EtOAc, room temperature",S>48.0 mg/mL
same,solubility,"[5]; EtOAc/n-heptane (1:4 v/v), 25 °C, organic solvent or mixture, thermodynamic from solid, EtOAc/n-Heptane (1:4) v/v, room temperature",< 1100 µg/mL
same,Solubility (mg/mL),"[5]; EtOH, room temperature",S>46.0 mg/mL
same,solubility,"[5]; EtOH/H2O (1:2) v/v, 25 °C, aqueous with cosolvent or surfactant or cyclodextrin, thermodynamic from solid, EtOH/H2O (1:2) v/v, room temperature",2100 to 5300 µg/mL
same,solubility,"[5]; H2O, 25 °C, water, thermodynamic from solid, room temperature",< 1100 µg/mL
same,Solubility (mg/mL),"[5]; IPA, room temperature",S>38.0 mg/mL
same,Solubility (mg/mL),"[5]; IPAc, room temperature",S>44.0 mg/mL
same,Solubility (mg/mL),"[5]; MIBK, room temperature",S>40.0 mg/mL
same,solubility,"[5]; MeOH, 25 °C, organic solvent or mixture, thermodynamic from solid, room temperature (25±3 °C)",> 50000 µg/mL
same,solubility,"[5]; NMP, 25 °C, organic solvent or mixture, thermodynamic from solid, room temperature",> 44000 µg/mL
same,solubility,"[5]; THF, 25 °C, organic solvent or mixture, thermodynamic from solid, room temperature",> 40000 µg/mL
same,solubility,"[5]; Toluene/n-Heptane (1:1) v/v, 25 °C, organic solvent or mixture, thermodynamic from solid, Toluene/n-Heptane (1:1) v/v, room temperature",1000 to 2000 µg/mL
same,solubility,[5]; [10],> 46000 µg/mL
same,solubility,"[5]; acetone/H2O (1:2 v/v), 25 °C, aqueous with cosolvent or surfactant or cyclodextrin, thermodynamic from solid, Acetone/H2O (1:2) v/v, room temperature",5300 to 10500 µg/mL
same,solubility,[5]; [11],> 48000 µg/mL
same,solubility,"[5]; n-Heptane, 25 °C, organic solvent or mixture, thermodynamic from solid, room temperature",< 1100 µg/mL
same,"recovery at 2 h, 2 µM",[6]; [12],52.9%
same,"recovery at 2 h, 10 µM",[6]; [12],37.5%
same,"recovery at 2 h, 2 µM",[6]; [13],87.1%
same,"recovery at 2 h, 10 µM",[6]; [13],81.6%
same,"recovery at 2 h, 30 µM","[6]; Caco-2, pH 7.4, Average recovery rate (%) B→A, Compound A concentration 30.0 µM",82.2%
same,permeability from A side to B side,Caco-2 cells,low
same,permeability from B side to A side,Caco-2 cells,high
"CC(C)C[C@@H](C(=O)Nc1ccn(C[C@@H](O)CO)n1)N1CC(Oc2ccccc2Cl)=CC1=O [HMS5552, (S)-2-(4-(2-chlorophenoxy)-2-oxo-2,5-dihydro-1H-pyrrol-1-yl)-N-(1-((R)-2,3-dihydroxypropyl)-1H-pyrazol-3-yl)-4-methylpentanamide, reference compound]",bioavailability,"[2]; Sprague-Dawley, rat, plasma, 30 mg/kg, SD male rats, PO, analyte parent drug HMS5552",51.2%
same,blood glucose level at 0 min (pre-glucose),C57BL/6J mice [3]; [9],generally lower than that of the vehicle control group
same,blood glucose values after glucose administration,"C57BL/6J mice [3]; HMS5552-40mg/kg group, at 30 min, versus vehicle control group",significantly lower than that of the vehicle control group
same,insulin levels at 0 min and 15 min,C57BL/6J mice [4]; each dose group of HMS5552 versus vehicle control group,"slightly higher than those in the vehicle control group, without significant difference"
CC(C)C[C@@H](C(=O)Nc1ccn(C[C@@H](O)COC(=O)c2cccnc2)n1)N1CC(Oc2ccccc2Cl)=CC1=O [Hydrochloride crystal form B],Solubility (mg/mL),"[5]; 1,4-Dioxane, room temperature, listed as crystal form B of the hydrochloride",S<1.0 mg/mL
same,solubility,"[5]; 2-methf, 25 °C, organic solvent or mixture, thermodynamic from solid, room temperature",< 1000 µg/mL
same,Solubility (mg/mL),"[5]; DMAc, room temperature, listed as crystal form B of the hydrochloride",S>40.0 mg/mL
same,Solubility (mg/mL),"[5]; DMSO, room temperature, listed as crystal form B of the hydrochloride",S>42.0 mg/mL
same,Solubility (mg/mL),"[5]; H2O, room temperature, listed as crystal form B of the hydrochloride",S<1.0 mg/mL
same,Solubility (mg/mL),"[5]; MTBE, room temperature, listed as crystal form B of the hydrochloride",S<1.0 mg/mL
same,Solubility (mg/mL),"[5]; MeOH, room temperature (25±3 °C), listed as crystal form B of the hydrochloride",S>36.0 mg/mL
same,Solubility (mg/mL),"[5]; NMP, room temperature, listed as crystal form B of the hydrochloride",S>42.0 mg/mL
same,Solubility (mg/mL),"[5]; Toluene, room temperature, listed as crystal form B of the hydrochloride",S<1.0 mg/mL
same,solubility,[5]; [10],< 1000 µg/mL
same,solubility,"[5]; acn, 25 °C, organic solvent or mixture, thermodynamic from solid, room temperature",< 1100 µg/mL
same,solubility,"[5]; acn/h2o (1:1) v/v, room temperature",> 40000 µg/mL
same,solubility,[5]; [11],< 1100 µg/mL
same,solubility,"[5]; dcm, 25 °C, organic solvent or mixture, thermodynamic from solid, room temperature",< 1000 µg/mL
same,solubility,"[5]; dmf/h2o (1:1) v/v, room temperature",22000 to 44000 µg/mL
same,solubility,"[5]; etoac, 25 °C, organic solvent or mixture, thermodynamic from solid, room temperature",< 1000 µg/mL
same,solubility,"[5]; etoh/h2o (1:1) v/v, room temperature",22000 to 44000 µg/mL
same,solubility,"[5]; ipa, 25 °C, organic solvent or mixture, thermodynamic from solid, room temperature",< 1100 µg/mL
same,solubility,"[5]; ipa/h2o (1:1) v/v, room temperature",> 40000 µg/mL
same,solubility,"[5]; ipac, 25 °C, organic solvent or mixture, thermodynamic from solid, room temperature",< 1000 µg/mL
same,solubility,"[5]; meoh/h2o (1:1) v/v, room temperature",11000 to 22000 µg/mL
same,solubility,"[5]; mibk, 25 °C, organic solvent or mixture, thermodynamic from solid, room temperature",< 1000 µg/mL
same,Solubility (mg/mL),"[5]; n-Heptane, room temperature, listed as crystal form B of the hydrochloride",S<1.0 mg/mL
same,solubility,"[5]; thf, 25 °C, organic solvent or mixture, thermodynamic from solid, room temperature",< 1100 µg/mL
same,solubility,"[5]; thf/h2o (1:1) v/v, room temperature",20000 to 40000 µg/mL
same,moisture-induced weight gain,[7],less than 0.7%
same,Purity (Area%),"[8]; 25 °C/75%RH, Day 2",99.72 Area%
same,Purity (Area%),"[8]; 25 °C/75%RH, Day 5",99.56 Area%
same,Purity (Area%),"[8]; 25 °C/75%RH, Day 9",99.64 Area%
same,Purity (Area%),"[8]; 40°C/75%RH, Day 2",99.67 Area%
same,Purity (Area%),"[8]; 40°C/75%RH, Day 5",99.38 Area%
same,Purity (Area%),"[8]; 40°C/75%RH, Day 9",99.33 Area%
same,Purity (Area%),"[8]; 60°C, Day 2",99.55 Area%
same,Purity (Area%),"[8]; 60°C, Day 5",99.43 Area%
same,Purity (Area%),"[8]; 60°C, Day 9",99.55 Area%
same,Purity (Area%),"[8]; 80°C, Day 2",95.20 Area%
same,Purity (Area%),"[8]; 80°C, Day 5",94.65 Area%
same,Purity (Area%),"[8]; 80°C, Day 9",96.80 Area%
same,Purity (Area%),[8]; Starting point (table 25 °C/75%RH / 40°C/75%RH),99.72 Area%
same,Purity (Area%),[8]; Starting point (table 60°C / 80°C),99.72 Area%
same,stability under the high-temperature and high-humidity conditions,[8]; compared with crystal form A of the free state,not as stable as crystal form A of the free state
